In publication PMC12029227, “In Vitro Evaluation of Novel Furo[3,2-c]coumarins as Cholinesterases and Monoamine Oxidases Inhibitors” (Molecules, 2025):
Entries after “also recorded” stand apart in the source; their conditions may differ. Like-named read-outs stand apart in the source and are kept apart here.

Experiments:
[1] = target: T1, hMAO B (Homo sapiens, UniProt P27338); assay: Inhibition of human recombinant MAO B, spectrofluorimetric kynuramine assay; assay type: biochemical; conditions: for inhibition at 10 µM: read-out: % Inhibition at 10 μM hMAO B
T1 construct: purchased Sigma-Aldrich (Milan, Italy)
T1 sequence (P27338 1-520): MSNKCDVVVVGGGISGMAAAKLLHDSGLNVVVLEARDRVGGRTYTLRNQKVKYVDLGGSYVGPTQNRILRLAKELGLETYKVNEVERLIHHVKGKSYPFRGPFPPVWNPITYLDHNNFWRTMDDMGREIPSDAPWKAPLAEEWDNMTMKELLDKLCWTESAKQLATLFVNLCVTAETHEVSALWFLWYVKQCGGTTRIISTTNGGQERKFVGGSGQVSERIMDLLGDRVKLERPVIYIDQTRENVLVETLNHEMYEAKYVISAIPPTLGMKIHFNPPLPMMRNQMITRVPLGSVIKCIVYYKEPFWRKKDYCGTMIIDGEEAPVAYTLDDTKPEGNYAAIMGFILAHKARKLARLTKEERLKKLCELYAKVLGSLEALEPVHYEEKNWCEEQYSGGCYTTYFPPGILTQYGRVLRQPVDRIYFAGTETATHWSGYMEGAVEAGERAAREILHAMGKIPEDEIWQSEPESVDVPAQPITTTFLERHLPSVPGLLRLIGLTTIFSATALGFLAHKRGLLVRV
Method: (§1) All human enzymes, substrates and reagents were from Sigma-Aldrich (Milan, Italy). Experiments were run in 96-well plates from Greiner Bio-One (Kremsmenster, Austria) with an Infinite M1000 Pro multiplate reader (Tecan, Cernusco sul Naviglio, Italy). […] For studies addressing MAOs inhibition the spectrofluorimetric protocol was based on the oxidative deamination of kynuramine to 4-hydroxyquinoline measured in black, flat-bottom polystyrene plates [29]. Incubations were performed in triplicate and results were expressed as the mean ± SEM from 3 independent experiments. The values of IC50 were calculated by nonlinear regressions using GraphPad Prism 5.00 (GraphPad Software, San Diego, CA, USA).

[2] = target: T2, hAChE (Homo sapiens, UniProt P22303); assay: biochemical; conditions: for IC50: human AChE, mean of three independent experiments ± SEM
T2 construct: purchased Sigma-Aldrich (Milan, Italy)
Method: All human enzymes, substrates and reagents were from Sigma-Aldrich (Milan, Italy). Experiments were run in 96-well plates from Greiner Bio-One (Kremsmenster, Austria) with an Infinite M1000 Pro multiplate reader (Tecan, Cernusco sul Naviglio, Italy). The inhibition of ChEs was determined by following Ellman’s spectrophotometric assay in transparent, flat-bottom plates [18]. […] Incubations were performed in triplicate and results were expressed as the mean ± SEM from 3 independent experiments. The values of IC50 were calculated by nonlinear regressions using GraphPad Prism 5.00 (GraphPad Software, San Diego, CA, USA). […] Apparent inhibition constants and kinetic parameters were calculated within the “Enzyme kinetics” module of Prism.

[3] = target: T3, hBChE (Homo sapiens, UniProt P06276); assay: biochemical; assay type: biochemical; conditions: for inhibition at 10 µM: human BChE, mean ± SEM; for inhibitory activity toward hBChE (in words): summary of Table 1
T3 construct: purchased Sigma-Aldrich (Milan, Italy)
Method: All human enzymes, substrates and reagents were from Sigma-Aldrich (Milan, Italy). Experiments were run in 96-well plates from Greiner Bio-One (Kremsmenster, Austria) with an Infinite M1000 Pro multiplate reader (Tecan, Cernusco sul Naviglio, Italy). The inhibition of ChEs was determined by following Ellman’s spectrophotometric assay in transparent, flat-bottom plates [18]. […] Incubations were performed in triplicate and results were expressed as the mean ± SEM from 3 independent experiments. The values of IC50 were calculated by nonlinear regressions using GraphPad Prism 5.00 (GraphPad Software, San Diego, CA, USA).

[4] = target: T4, hMAO A (Homo sapiens, UniProt P21397); assay: Inhibition of human recombinant MAO A, spectrofluorimetric kynuramine assay; assay type: biochemical; conditions: for inhibition at 10 µM: read-out: % Inhibition at 10 μM hMAO A; for inhibition of MAO A activity (in words): summary of Table 1
T4 construct: purchased Sigma-Aldrich (Milan, Italy)
T4 sequence (P21397 1-527): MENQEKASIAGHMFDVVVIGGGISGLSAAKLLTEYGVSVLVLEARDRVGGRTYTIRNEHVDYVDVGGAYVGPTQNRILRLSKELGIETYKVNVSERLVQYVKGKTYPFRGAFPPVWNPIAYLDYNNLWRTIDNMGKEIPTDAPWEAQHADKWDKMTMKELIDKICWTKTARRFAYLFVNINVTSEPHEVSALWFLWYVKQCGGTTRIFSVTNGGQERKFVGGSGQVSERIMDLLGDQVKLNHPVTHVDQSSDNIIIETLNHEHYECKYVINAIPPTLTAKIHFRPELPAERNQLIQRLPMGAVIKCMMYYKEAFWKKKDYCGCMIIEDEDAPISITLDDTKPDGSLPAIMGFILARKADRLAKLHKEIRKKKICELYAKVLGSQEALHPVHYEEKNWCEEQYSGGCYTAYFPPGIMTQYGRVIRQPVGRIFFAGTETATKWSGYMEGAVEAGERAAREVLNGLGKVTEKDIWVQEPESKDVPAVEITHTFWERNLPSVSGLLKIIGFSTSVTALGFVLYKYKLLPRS
Method: as §1

[5] = Precipitation in the cell assay conditions; assay type: physicochemical; conditions: 20 μM, SH-SY5Y cell assay conditions
Method: The cell viability of human neuroblastoma SH-SY5Y cells was measured as previously reported in ref. [29]. […] Briefly, cells were plated at a concentration of 4.5 × 10^4 cells/well and cultured in Dulbecco’s modified Eagle’s medium (DMEM) high glucose supplemented with 10% (v/v) heat-inactivated fetal bovine serum (FBS), 2 mM L-glutamine, 100 U/mL penicillin, and 100 μg/mL streptomycin at 37 °C in an atmosphere of 5% CO2 in 96 wells/plate. […] Then, cells were incubated for 2 h at 37 °C and 5% CO2 with 0.5 mg/mL of MTT, and the formazan crystals in the cells were solubilized with absolute ethanol. […] Cell viability was expressed as a percentage of the negative control (CTRL), represented by untreated cells, which was set at 100%. Data are the mean ± SD from three independent experiments, each performed in triplicate and analyzed using GraphPad Prism 5.0 (GraphPad Software Inc., San Diego, CA, USA). Statistical significance was calculated using a one-way analysis of variance (ANOVA) followed by Dunnett’s multiple comparison test. Levels of significance refer to untreated cells: * p < 0.05.

[6] = human recombinant MAO A on Supersomes, 10 μM, mean ± SEM
[7] = human recombinant MAO B on Supersomes, 10 μM, mean ± SEM

T3 sequence (P06276 29-602): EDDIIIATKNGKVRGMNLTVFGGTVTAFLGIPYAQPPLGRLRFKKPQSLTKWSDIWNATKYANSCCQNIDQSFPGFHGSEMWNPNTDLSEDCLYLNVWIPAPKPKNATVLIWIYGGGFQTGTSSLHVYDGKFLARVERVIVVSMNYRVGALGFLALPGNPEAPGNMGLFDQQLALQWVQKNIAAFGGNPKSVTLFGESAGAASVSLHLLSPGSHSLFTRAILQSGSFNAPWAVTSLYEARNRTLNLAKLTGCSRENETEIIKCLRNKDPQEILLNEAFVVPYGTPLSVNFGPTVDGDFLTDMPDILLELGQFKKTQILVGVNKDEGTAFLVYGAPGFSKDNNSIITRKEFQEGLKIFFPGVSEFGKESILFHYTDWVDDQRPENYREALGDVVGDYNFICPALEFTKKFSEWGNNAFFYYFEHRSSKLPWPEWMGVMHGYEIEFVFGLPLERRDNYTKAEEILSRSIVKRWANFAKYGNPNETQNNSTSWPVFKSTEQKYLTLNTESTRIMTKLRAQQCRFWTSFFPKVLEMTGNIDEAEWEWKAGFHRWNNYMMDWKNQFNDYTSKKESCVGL
T2 sequence (P22303 32-614): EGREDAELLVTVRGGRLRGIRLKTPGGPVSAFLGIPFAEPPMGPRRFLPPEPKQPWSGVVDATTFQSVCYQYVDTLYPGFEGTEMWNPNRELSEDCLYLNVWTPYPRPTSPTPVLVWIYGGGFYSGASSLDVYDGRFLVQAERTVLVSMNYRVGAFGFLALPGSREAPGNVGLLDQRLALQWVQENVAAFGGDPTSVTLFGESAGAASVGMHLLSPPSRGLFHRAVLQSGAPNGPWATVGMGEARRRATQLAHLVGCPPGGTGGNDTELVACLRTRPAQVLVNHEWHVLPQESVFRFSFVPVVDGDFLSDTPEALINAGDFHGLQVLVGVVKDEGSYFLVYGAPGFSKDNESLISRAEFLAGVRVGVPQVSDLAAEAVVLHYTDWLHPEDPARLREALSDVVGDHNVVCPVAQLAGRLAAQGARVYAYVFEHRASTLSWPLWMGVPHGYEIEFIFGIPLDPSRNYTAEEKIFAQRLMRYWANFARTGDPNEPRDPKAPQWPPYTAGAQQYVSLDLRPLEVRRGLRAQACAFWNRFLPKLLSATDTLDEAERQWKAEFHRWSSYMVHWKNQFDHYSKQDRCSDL

SMILES	inhibition at 10 µM [1] [%]	IC50 [2] [µM]	inhibition at 10 µM [3] [%]	inhibitory activity toward hBChE (in words) [3]	inhibition at 10 µM [4] [%]	precipitation in the assay conditions at higher concentrations [5]	IC50 [1] [µM]	inhibition mechanism for AChE ([2]; Lineweaver-Burk plots, inhibitor 0–15 μM)	Ki ([2]; Lineweaver-Burk plots, inhibitor 0–15 μM, substrate S-acetylthiocholine 0.033 to 0.2 mM, read-out: Ki AChE) [µM]	inhibition at 10 µM [4, 6] [%]	inhibition of MAO A activity (in words) ([4]; 10 μM)	inhibition at 10 µM [1, 7] [%]
CS(=O)(=O)c1ccccc1[C@@H]1Oc2c(c(=O)oc3ccccc23)[C@H]1c1ccc(Cl)cc1 [Compound 2c]	11 ± 6	4 ± 0.7	< 5	absence of inhibitory activities	16 ± 14	–	–	–	–	–	–	–
COc1ccc([C@@H]2c3c(c4ccccc4oc3=O)O[C@H]2c2ccccc2S(C)(=O)=O)cc1 [Compound 2b]	39 ± 6	6.1 ± 0.3	29 ± 11	very low percentage of inhibition	45 ± 1	precipitation	–	–	–	–	–	–
CS(=O)(=O)c1ccccc1-c1oc2c(c1-c1cccs1)c(=O)oc1ccccc12 [Compound 3d]	–	4.1 ± 0.7	21 ± 3	very low percentage of inhibition	–	–	0.561 ± 0.085	mixed-type or a non-competitive inhibition mechanism; also recorded: mixed-type kinetics; also recorded: mixed-type or non-competitive binding mode	9.7 ± 0.6	< 5	no inhibition	–
CS(=O)(=O)c1ccccc1[C@@H]1Oc2c(c(=O)oc3ccccc23)[C@H]1c1cccs1 [Compound 2d]	17 ± 10	4 ± 0.5	< 5	absence of inhibitory activities	42 ± 4	precipitation	–	–	–	–	–	–
Cc1ccc([C@@H]2c3c(c4ccccc4oc3=O)O[C@H]2c2ccccc2S(C)(=O)=O)cc1 [Compound 2a]	40 ± 8	5.5 ± 0.7	27 ± 12	very low percentage of inhibition	47 ± 3	precipitation	–	–	–	–	–	–
COc1ccc(-c2c(-c3ccccc3S(C)(=O)=O)oc3c2c(=O)oc2ccccc23)cc1 [Compound 3b]	–	5.7 ± 1	19 ± 9	very low percentage of inhibition	–	–	–	–	–	< 5	inactive	43 ± 1
Cc1ccc(-c2c(-c3ccccc3S(C)(=O)=O)oc3c2c(=O)oc2ccccc23)cc1 [Compound 3a]	–	4.4 ± 0.5	< 5	absence of inhibitory activities	–	–	–	–	–	< 5	inactive	32
